Results reported in publication PMC12341765, “Microenvironment-triggered multimodal precision diagnostics” (Nature materials, 2021).

What was measured:
MC26 CRC lung tumors [1] = conditions: mouse, in vivo
LS 174T tumors = assay: PET-CT imaging of low glucose uptake subcutaneous xenografts; set-up: species or system NCr nude mice; conditions: mouse, in vivo
MC26 CRC lung tumors [2] = assay: 5-FU treatment of CRC lung disease model, monitored with PRISM (urine, PET-CT); type: in vivo, BALB/c mice; conditions: 5-FU 15 mg/kg i.p.
Description: 5-Fluorouracil (5-FU) was purchased (Sigma-Aldrich) and prepared as previously described.[47] 5-FU or vehicle control (DMSO) was administered by intraperitoneal injection at in a 0.2 mL volume starting 1 week after cell injection for metastasis-initiation experiments. A 15 mg/kg dose per treatment was used for all experiments. […] Experimental group sizes were practically associated according to the number of mice housed per cage (n=5 mice per cage). […] Tumor-bearing mice were closely monitored and euthanized following health-check advice given by an independent veterinary scientist responsible for animal welfare. […] Reconstructed PET and CT data were quantitatively evaluated using VivoQuant software (inviCRO Inc.). […] The radioactivity uptake values within CT-drawn organs were obtained from mean voxel values within the ROI and converted to percentage injected dose (ID) and then divided by mouse weight (g) to obtain an imaging ROI-derived percentage of the injected radioactive dose per gram of tissue (%ID/g). […] The tumor (or tissue) to tissue (i.e. lung to liver) ratio was calculated by dividing the mean lung by the mean liver %ID/g values. To quantify the radioactivity in diseased tissues ex vivo, tissues were harvested after perfusion with PBS and counts were collected using a 2480 WIZARD2 gamma counter (Perkin Elmer Inc.). […]

Row | SMILES | background signal in the chest / heart accumulation on PET-CT (MC26 CRC lung tumors [1]) | tumor uptake versus background tissue (LS 174T tumors) | relative lung/liver ratio of PET-CT signal, no-treatment cohort versus cohort treated with chemotherapy (MC26 CRC lung tumors [2]; two weeks of treatment, 64Cu-PRISM PET-CT) | effect on tumor progression compared with non-treated cohort (MC26 CRC lung tumors [2]; urinary reporter signal and PET imaging, after a single week)
1 | OC[C@H]1OC(O)[C@H](F)[C@@H](O)[C@@H]1O (stereo partly shown) [18F-FDG, 18F-2-deoxyfluoroglucose] | strong accumulation in the heart | indistinguishable from the background tissue | – | –
2 | O=c1[nH]cc(F)c(=O)[nH]1 [5-FU, 5-Fluorouracil] | – | – | over 3 times | significantly inhibited tumor progression
